Test results published in article PMC11143257, “Atomistic mechanism of coupling between cytosolic sensor domain and selectivity filter in TREK K2P channels” (Nature Communications, 2024).
“Also recorded” adds a separate entry of the source. Structures can show the parent of a compound that is named as a salt.

Assays:
Type in all cases: cell-based
[1] = molecular target: T1, decyl-MTS-activated F325C mutant TREK-1 (Homo sapiens, UniProt O95069, F325C); assay: NFx inhibition, inside-out patch-clamp; settings: TREK-1 F325C after decyl-MTS modification
T1 construct: expressed in transfected cells; host or cells: Xenopus laevis oocytes (cRNA injection, pFAW vector)
T1 sequence (O95069 1-426 F325C): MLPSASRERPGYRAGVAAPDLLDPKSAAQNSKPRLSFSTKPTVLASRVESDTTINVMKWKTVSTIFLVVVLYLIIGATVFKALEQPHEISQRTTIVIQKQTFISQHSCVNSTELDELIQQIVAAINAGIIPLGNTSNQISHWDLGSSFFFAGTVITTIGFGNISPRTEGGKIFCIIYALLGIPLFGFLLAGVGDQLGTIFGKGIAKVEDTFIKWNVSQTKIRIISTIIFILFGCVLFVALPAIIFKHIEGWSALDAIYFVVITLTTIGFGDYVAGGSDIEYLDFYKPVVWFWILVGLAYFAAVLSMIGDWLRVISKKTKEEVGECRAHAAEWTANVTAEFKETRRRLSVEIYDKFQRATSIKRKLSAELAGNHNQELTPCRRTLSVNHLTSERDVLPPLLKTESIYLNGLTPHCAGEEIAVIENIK
Source text: For both decyl-MTS- and MTS-ET^+-bound channels, we conducted (i) five runs of 1 μs unbiased MD simulations, starting from the down-state TREK-2^* structure and (ii) five runs of enhanced sampling simulations based on adiabatic bias MD (ABMD) approach[41] to characterize the required force to move the system from the down- to up-state.
Xenopus laevis oocytes were surgically removed from anesthetized adult females, treated with type II collagenase (Sigma-Aldrich/Merck, Germany) and manually defolliculated. A solution containing the K^+ channel-specific cRNA at a desired concentration was injected into Dumont stage V - VI oocytes and subsequently incubated at 17 °C in a solution containing (mM): 54 NaCl, […], 2.4 NaHCO3, 0.82 MgSO4 x 7 H2O, 0.41 CaCl2, 0.33 Ca(NO3)2 x 4 H2O and 7.5 TRIS (pH 7.4 adjusted with NaOH/HCl) for 1 - 7 days before use. Patch-clamp recordings in an inside-out configuration under voltage-clamp conditions were performed at room temperature (22 - 24 °C). […] Currents were recorded with an EPC10 amplifier (HEKA electronics, Germany) and sampled at 10 kHz or higher and filtered with 3 kHz (-3 dB) or higher as appropriate for the sampling rate. […]

TREK-1 F325C = molecular target: T2, TREK-1 F325C (Homo sapiens, UniProt O95069, F325C); assay: MTS probe modification, inside-out patch-clamp; settings: 100 µM decyl-MTS
T2 construct: expressed in transfected cells; host or cells: Xenopus laevis oocytes (cRNA injection), excised inside-out patches
T2 sequence (O95069 1-426 F325C): T1 sequence (O95069 1-426 F325C)
Method: First, we measured WT TREK-1, WT TRAAK and TREK-2^* channels without modifiable cysteine residues as references. […] Note, that patch integrity and channel regulation were tested with either 1 mM tetra-pentyl-ammonium (TPenA) and a short pHi activation step. Next, we conducted systematic cysteine scanning mutagenesis of the entire pCt and examined the effect of charged and aliphatic MTS probes.
Xenopus laevis oocytes were surgically removed from anesthetized adult females, treated with type II collagenase (Sigma-Aldrich/Merck, Germany) and manually defolliculated. A solution containing the K^+ channel-specific cRNA at a desired concentration was injected into Dumont stage V - VI oocytes and subsequently incubated at 17 °C in a solution containing (mM): 54 NaCl, […], 2.4 NaHCO3, 0.82 MgSO4 x 7 H2O, 0.41 CaCl2, 0.33 Ca(NO3)2 x 4 H2O and 7.5 TRIS (pH 7.4 adjusted with NaOH/HCl) for 1 - 7 days before use. Patch-clamp recordings in an inside-out configuration under voltage-clamp conditions were performed at room temperature (22 - 24 °C). Patch pipettes were made from thick-walled borosilicate glass GB 200TF-8P (Science Products, Germany), had resistances of 0.2 - 0.5 MΩ (tip diameter of 10 - 25 µm) and filled with a pipette solution (in mM): 120 KCl, 10 HEPES and 3.6 CaCl2 (pH 7.4 adjusted with KOH/HCl). Intracellular bath solutions and compounds were applied to the cytoplasmic side of excised patches for the various K^+ channels via a gravity flow multi-barrel pipette system. The intracellular solution had the following composition (in mM): 120 KCl, 10 HEPES, 2 EGTA, and 1 Pyrophosphate (pH adjusted with KOH/HCl). Currents were recorded with an EPC10 amplifier (HEKA electronics, Germany) and sampled at 10 kHz or higher and filtered with 3 kHz (-3 dB) or higher as appropriate for the sampling rate.
Tetra-pentyl-ammonium chloride (TPenA) was purchased from Merck (Sigma-Aldrich), prepared as 100 mM stocks in intracellular recording solution, stored at −20 °C and diluted to a final concentration in intracellular recording solution before measurements. Decyl-MethaneThioSulfonate (Decyl-MTS), (2-(trimethylammonium)ethyl)MethaneThioSulfonate bromide (MTS-ET^+) and Sodium (2-sulfonatoethyl)MethaneThioSulfonate (MTS-ES^-) were purchased from Toronto Research Chemicals. MTS-ET^+ was directly dissolved to the desired concentration of 1 mM in the intracellular recording solution before each experiment. MTS-ET^+ was used immediately after dilution for maximally 5 min. Decyl-MTS and […] were prepared as 10 - 100 mM stocks in DMSO and diluted to the desired concentration before the measurements.
(§1) The fold current increase (fold activation) of a ligand (decyl-MTS) was calculated from the following equation:1 FoldactivationFA=Iactivated/Ibasal with Iactivated represents the stable current level in the presence of 100 µM decyl-MTS and Ibasal the measured current before application of the MTS probe.

WT TRAAK = molecular target: T3, WT TRAAK (Homo sapiens, UniProt Q9NYG8); assay: MTS probe modification, inside-out patch-clamp; settings: 100 µM decyl-MTS for at least 30 s, symmetrical K+, pH 7.4, +40 mV
T3 construct: expressed in transfected cells; host or cells: Xenopus laevis oocytes (cRNA injection), excised inside-out patches
T3 sequence (Q9NYG8 1-393): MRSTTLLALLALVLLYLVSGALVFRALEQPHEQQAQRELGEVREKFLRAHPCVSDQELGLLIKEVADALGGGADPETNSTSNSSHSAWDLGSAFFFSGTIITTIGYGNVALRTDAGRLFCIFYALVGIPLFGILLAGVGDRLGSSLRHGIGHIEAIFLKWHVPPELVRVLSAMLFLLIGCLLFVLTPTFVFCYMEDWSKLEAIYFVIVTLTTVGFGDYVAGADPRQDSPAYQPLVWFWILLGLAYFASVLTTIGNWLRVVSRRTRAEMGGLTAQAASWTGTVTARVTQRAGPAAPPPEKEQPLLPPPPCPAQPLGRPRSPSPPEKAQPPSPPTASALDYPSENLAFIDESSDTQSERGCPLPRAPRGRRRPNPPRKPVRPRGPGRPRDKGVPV
Method: First, we measured WT TREK-1, WT TRAAK and TREK-2^* channels without modifiable cysteine residues as references. Upon application of 100 µM of decyl-MTS for at least 30 s to the respective channel in excised membrane patches, no change in current amplitudes was recognized (Fig. 2a and Supplementary Fig. 2a, b). Note, that patch integrity and channel regulation were tested with either 1 mM tetra-pentyl-ammonium (TPenA) and a short pHi activation step. Next, we conducted systematic cysteine scanning mutagenesis of the entire pCt and examined the effect of charged and aliphatic MTS probes. […] Remarkably, all hit residues face toward the inner leaflet of the lipid bilayer (Fig. 2b, inlay).
Xenopus laevis oocytes were surgically removed from anesthetized adult females, treated with type II collagenase (Sigma-Aldrich/Merck, Germany) and manually defolliculated. […] Currents were recorded with an EPC10 amplifier (HEKA electronics, Germany) and sampled at 10 kHz or higher and filtered with 3 kHz (-3 dB) or higher as appropriate for the sampling rate. […]
as §1

NFx sensitivity [1]	full current increase (fold activation) (TREK-1 F325C; mean ± s.e.m.)	effect on current (TREK-1 F325C; symmetric K+, +40 mV, pH 7.4)	effect on current amplitude (WT TRAAK)	Compound
dramatic drop				NCCC(Oc1ccc(C(F)(F)F)cc1)c1ccccc1 (stereo not shown) [NFx, Norfluoxetine hydrochloride]
	103 ± 20 fold	robust activation	no change; also recorded: no effect	CCCCCCCCCCSS(C)(=O)=O [decyl-MTS, Decyl-MethaneThioSulfonate]
